Literature values, collected in US20130039995A1, “DERMATOLOGICAL COMPOSITIONS COMPRISING AT LEAST ONE REINOID COMPOUND, AN ANTI-IRRITANT COMPOUND AND BENZOYL PEROXIDE” (Galderma Research & Development, priority 2007, published 2013).

In the case of O=C(OOC(=O)c1ccccc1)c1ccccc1 [benzoyl peroxide], the “degradation of benzoyl peroxide in solution” value (in solution in ethanol, propylene glycol and mixtures of PEG 400 and water, depends on type of solvent and its concentration) is listed as “degrades more or less rapidly” and the “degradation of benzoyl peroxide in suspension on storage” value (in suspension (disperse form) in water and in propylene glycol, after 90 days of storage) is listed as “not degraded”.
